Experimental data as given in US7790160B2, “Method of treating CD30 positive lymphomas” (Medarex, Inc., priority 2004, dated 2010).
“Also recorded” adds a separate entry of the source. Where a SMILES comes first, the peptide text is derived from it. The star is where a group is joined. Cbz = O=C(OCc1ccccc1)*

Tests used:
[1] = test system: subcutaneous L540Cy Hodgkin tumors; assay: Xenograft model of human HD; assay type: in vivo; conditions: SCID mice; for tumor growth compared to the control group receiving PBS: 100 μg 5F11 i.p., 10 ng bortezomib i.v. 6 hours later, 4 injections; for tumor growth in the weeks after treatment: several weeks after the 4 injections
Procedure: FIG. 3: Effect of 5F11 and bortezomib on the tumor growth of subcutaneous L540Cy Hodgkin tumors in SCID mice. The mice were randomly divided into four groups when the L540 derived tumors reached a volume of about 100 mm3 to receive PBS, 5F11 (100 μg), bortezomib (10 ng) or the combination of 5F11 and bortezomib. The tumor volume of each mouse is given. The arrows indicate the days of treatment.
The xenograft model of human HD has been described previously (17). Subcutaneous solid L540Cy tumors were established by injection of L540Cy cells (1×10^7) resuspended in 200 μL PBS into the right flank of pathogen-free severe combined immunodeficiency (SCID) mice (FOX CHASE SCID; Taconic M&B A/S, Ry, Denmark). Tumor development was measured every 3 days and the tumor volume was determined using the formula (length×width×height/2). Animals with established tumors of about 100 mm^3 were divided randomly into four groups, which received 100 μg 5F11 (in 200 μL PBS intraperitoneally) and 6 hours later 10 ng bortezomib i.v. by tail vein or each agent alone for a total of 4 injections. Control mice received PBS only. The experiment was stopped and the mice killed when the median […] in the control group exceeded 2500 mm^3 (day 50). The treatment and control groups consisted of 4 animals each and results were confirmed by repeating the experiments.

REH cells [2] = assay: XTT viability assay, CD30-negative control line; conditions: REH cells (do not express CD30), bortezomib alone
Text: (§5) An XTT-assay showing viability of the Hodgkin cell lines L540 (A), L428 (B) and the ALCL line Karpas299 (C) and the CD30 negative cell line REH (E) after exposure to increasing amounts of bortezomib in the presence (diamond) or absence (triangle) of 5F11.

[3] = test system: bcl-2, bax, TRADD and FADD; assay: SDS-PAGE and Western blotting of candidate proteins related to NF-κB activation; assay type: cell-based, human; conditions: following 5F11 crosslinking or bortezomib treatment
Procedure: (§1) Whole cell protein extracts were prepared in 1× Laemmli solution (10 μg) were separated using sodium dodecyl sulfate polyacrylamide gel electrophoresis (SDS-PAGE) using 4-15% gels. Proteins were transferred to a nitrocellulose membrane (Hybond-C, Amersham Pharmacia Biotech Inc., Freiburg, Germany) and blocked with Roti-Block (Roth, Karlsruhe, Germany) for 1 h at room temperature. Immunoblots were incubated with the primary antibodies obtained from the Apoptosis Sampler Kits I and II (BD Bioscience, CA) in PBS with 10% fetal calf serum as recommended. The c-flip specific antibody was purchased from Sigma (F-6550). Bound antibodies were detected with horseradish peroxidase-conjugated secondary donkey-anti-mouse or rabbit-IgG mAb (Dianova, Hamburg, Germany) or horseradish peroxidaseconjugated goat-anti-mouse IgG (Dianova) diluted 1/10000. The proteins were visualized using the ECL Western blotting detection reagents (Amersham Pharmacia) according to manufacturers instructions.

c-flip in L540 cells = assay: SDS-PAGE and Western blotting; assay type: cell-based, human; conditions: CD30 stimulation with 5F11, co-incubation with bortezomib for 6, 8 and 16 hours
Procedure: as §1

c-flip in L428 cells = assay: SDS-PAGE and Western blotting; assay type: cell-based, human; conditions: CD30 stimulation with 5F11, co-incubation with bortezomib for 6, 8 and 16 hours
Procedure: as §1

L540 cells [4] = assay: XTT viability assay; assay type: cell-based, human
Text: (§2) Each measurement was done in triplicate.

L428 cells [5] = assay: XTT viability assay; assay type: cell-based, human
Text: as §2

[6] = test system: NF-κB-responsive luciferase reporter gene in L428 cells; assay: Transient transfection and luciferase reporter gene assay; assay type: cell-based, human; conditions: L428 transfected with pNF-κB-luc
Procedure: L428 cells were transfected with either the reporter constructs pCMV-luc (transfection control) or pNF-κB-luc (bar 2-4) or pNF-κB-luc together with the expression vector IkBM (bar 5-7). The transfection efficacy was about 10% and the total amount of DNA was kept constant. After an over night recovery period transfectants were treated with PBS (basal), 5F11 or bortezomib for 24 hours. The luciferase activity (RLU) of the cells were measured and is given to indicate the relative levels of NF-κB-dependent promoter activity.
5×10^6 L428 cells in 1 ml medium were transiently transfected by means of electroporation with 10 μg NF-κB-luc, IkBaM and CMV-GFP. Cells were seeded into six-well plates with additional 2 ml of plain medium. After 24 h incubation at 37° C., GFP transfected cells were examined for green flourescence as indicator of transfection efficacy, which varied from 5% to 10%. Cells were incubated either with 20 μg/ml 5F11+100 μg/ml GaH for 2 h, or with 10 ng/ml bortezomib or both or plain media for 12 h at 37° C. After harvesting the cells were washed twice in PBS (phosphate buffered saline).
Lysis was performed using 1 ml ice-cold reporter lysis buffer (Promega), and lysates were frozen at −70° C. for 1 hour. Luciferase activity was measured using 30 μl lysate in a 96-well luminometry-plate and analyzed by luminometry. Untreated cells, transfected with the reporter gene were used to obtain baseline NF-κB-activity. All assays were done in triplicate to obtain means and standard deviations.

[7] = test system: NF-κB subunit p65 in L540 cells; assay: Detection of NF-κB subunit p65 with indirect immunofluorescence; assay type: cell-based, human; conditions: for expression level and nuclear localisation of NF-κB (p65 staining): L540 cells, crosslinked 5F11 or bortezomib
Procedure: (§3) Cytospins were provided (1 min at 1000 U/min) to determine the effect of 5F11 and/or bortezomib on apoptosis and NFκB-activation in L428 and L540 cells on the single cell level. 2×10^5 cells were seeded in six-well microtiter plates in 3 ml plain media (control) or with 5F11+GaH (5 μg/25 μg per ml) or bortezomib (10 nM) or both. Incubation time was 30 min for 5F11, 1 h for crosslinking GaH and at least six hours for bortezomib, all at 37° C. The slides were dried overnight at room temperature and fixed using ice-cold acteone (30 sec incubation). The TUNEL assay was performed using the In Situ Cell Death Detection Kit, TMR red (Roche) according to the manufacturers instructions. Finally, cells were mounted with VECTASHIELD Mounting Medium containing DAPI (Vector Laboratories, Burlingame, Calif.) or stained with an rabbit-anti-p65 antibody (Santa Cruz, 10 nM) and a second FITC-labeled mouse-anti-rabbit antibody (10 nM). Cytospin preparations were analyzed by fluorescence microscopy.
In order to exclude non-specific antibody binding, slides of untreated cells were stained either with rabbit-anti-p65-IgG, or FITC-conjugated mouse-anti-rabbit-IgG, or DAPI.

Karpas 299 cells = assay: XTT viability assay; conditions: Karpas299, 5F11 + GaH pre-incubated 30 minutes, versus absence of 5F11, 48 hours
L540 cells [8] = assay: Annexin V binding assay (annexinV-FITC staining, FACS); assay type: cell-based, human; conditions: each agent alone, subtoxic concentrations
Procedure: FIG. 1: Induction of apoptosis in L540 cells after treatment with 5F11 and MG132 L540 cells were cultured for 16 h with PBS (control), crosslinked 5F11, MG132 or a combination of 5F11 and MG132. The apoptotic cells were labeled by annexinV-FITC staining and the percentage of viable and apoptotic cells is given as estimated in FACS analysis. The results of three independent experiments are shown.
2×10^5 L540 cells were incubated (in triplicate) either with 5F11/GaH, bortezomib, or both, or in plain medium as described above at 37° C. for 12 h. To detect apoptotic cells, the translocation of phosphatidylserine to the outer leaflet of the plasma membrane was determined by flow cytometry (FACS calibur Bengton & Dickinson Flow Cytometer) after staining with annexin V conjugated to fluorescein as recommended (Annexin V-FITC apoptosis detection kit I, BD Bioscience, USA). Triplicateswere used to calculate means and standard deviations.

[9] = test system: NF-κB DNA binding in L428 cells; assay: Electrophoretic mobility shift assay (EMSA); assay type: cell-based, human; conditions: L428 nuclear extract, crosslinked antibody
Procedure: (§4) Electrophoretic mobility shift assays (EMSA) were performed to visualize binding of NF-κB to DNA. Nuclear protein extract (5 μg; 20 mM HEPES, pH 7.9, 400 mM NaCl, 1 mM EDTA, 1 mM EGTA) from cells treated with different antibodies were incubated with ^32P-labeled oligonucleotides with the NF-κB binding sequence (Santa Cruz) for 30 minutes at room temperature. The DNA/protein complexes were separated using electrophoresis on 6% native polyacrylamide gels.

[10] = test system: NF-κB DNA binding in L540 cells; assay: Electrophoretic mobility shift assay (EMSA); assay type: cell-based, human; conditions: L540 nuclear extract, crosslinked antibody
Procedure: as §4

L428 cells [11] = conditions: 5F11 alone, even at higher concentrations (ref. 17); cited from earlier work
L540 cells [12] = assay: TUNEL assay with 5F11 binding staining (GaH-FITC); assay type: cell-based, human
Procedure: as §3
The cellular reponse to 5F11 in the partial apoptosis-resistent HD-derived cell line L540 on the single cell level was analyzed. To visualize binding of 5F11 and apoptosis simultaneously, L540 cells were incubated with 5F11 and a FITC labeled crosslinking goat-anti human antibody before performing a TUNEL assay. […]

REH cells [13] = test system: REH cells
Text: as §5

Molecule	tumor growth compared to the control group receiving PBS [1]	tumor growth in the weeks after treatment [1]	bcl-2 and bax expression (Western blotting) [3]	expression levels of TRADD and FADD (Western blotting) [3]	expression of c-flip (Western blotting) (c-flip in L540 cells)	expression of c-flip (Western blotting) (c-flip in L428 cells)	expression level and nuclear localisation of NF-κB (p65 staining) [7]	enhancement of apoptosis compared to the control (annexin-V staining and FACS analysis) (L540 cells [8])	other results
CC(C)C[C@H](NC(=O)[C@H](Cc1ccccc1)NC(=O)c1cnccn1)B(O)O [bortezomib, reference compound]	significantly delayed tumor growth	tumor progression	Only minor changes	remained unaltered	downregulation	downregulation	exclusion of NF-κB from the cell nuclei		cytotoxicity (XTT) (REH cells [2]): killed by bortezomib in a dose dependent manner; IC50 of bortezomib in the presence of 5F11 (L540 cells [4]; L540, 5F11 + GaH pre-incubated 30 minutes, versus absence of 5F11, 48 hours): decreased; cell viability (XTT) (L540 cells [4]; L540, bortezomib 25 ng/ml, with or without pre-treatment with subtoxic 5F11 + GaH, 48 h): minimal reduction of viability; IC50 of bortezomib in the presence of 5F11 (L428 cells [5]; L428, 5F11 + GaH pre-incubated 30 minutes, versus absence of 5F11, 48 hours): decreased; 5F11-induced activation of the NF-κB reporter gene in the presence of bortezomib [6]: supressed; basal activity of the NF-κB reporter [6]: reduced; 5F11-induced NF-κB staining increase and nuclear accumulation in the presence of bortezomib ([7]; L540, bortezomib given 30 minutes after 5F11 stimulation, observed after 6 and 8 hours): inhibited; IC50 of bortezomib in the presence of 5F11 (Karpas 299 cells): decreased
CC(C)C[C@@H](C=O)NC(=O)[C@H](CC(C)C)NC(=O)[C@H](CC(C)C)NC(=O)OCc1ccccc1 [MG132, carbobenzoxyl-leucinyl-leucynil-leucynal, reference compound] (Cbz-Leu-Leu-Leu-aldehyde)								did not enhance apoptosis	
5F11: fully human monoclonal antibody directed against CD30; VH SEQ ID NO: 10, VL SEQ ID NO: 12 (antibody, listed as Homo sapiens, V domains shown) VH: QVQLQQWGAGLLKPSETLSLTCAVYGGSFSAYYWSWIRQPPGKGLEWIGDINHGGGTNYNPSLKSRVTISVDTSKNQFSLKLNSVTAADTAVYYCASLTAYWGQGSLVTVSS VL: DIQMTQSPTSLSASVGDRVTITCRASQGISSWLTWYQQKPEKAPKSLIYAASSLQSGVPSRFSGSGSGTDFTLTISSLQPEDFATYYCQQYDSYPITFGQGTRLEIK	significantly delayed tumor growth	tumor progression	Only minor changes	remained unaltered	induced strongly	induced strongly	increased; also recorded: nuclear accumulation	did not enhance apoptosis	DNA-binding activity of NF-κB (EMSA) [9]: enhanced DNA binding; DNA-binding activity of NF-κB (EMSA) [10]: enhanced DNA binding; sensitivity of L428 cells to 5F11 (L428 cells [11]): resistant; enhancement of the cytotoxic activity of bortezomib, reversed sequence (L428 cells [5]; L428 first incubated with bortezomib for 30 minutes, then with the antibody): does not increase; also recorded: did not enhance; activation of the NF-κB reporter gene (luciferase activity) ([6]; stimulation with 5F11): about two-fold; binding of 5F11 (staining with GaH-FITC) (L540 cells [12]; L540 cells incubated with 5F11 and FITC labeled crosslinking goat-anti human antibody): All L540 cells were stained; apoptosis on the single cell level (TUNEL assay) (L540 cells [12]; L540 cells, 5F11 crosslinked with GaH, subtoxic concentrations in the combination): only a subset of the cells were rendered apoptotic; effect of pre-incubation with 5F11 on the cytotoxic potential of bortezomib (REH cells [13]): no effect
